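Dose response: 5 concentrations. Exposure: 48 h. Format: 96-well plates. Endpoint: linear interpolation; highest concentration if not reached. GI50 = concentration required for 50% inhibition of growth.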 Active and inactive are the calls of the source. Rule as the data show it: active = GI50 up to about 1.1 µM and inactive = higher.
How the values were obtained:
Test in all cases: NCI anticancer screen, dose series, 48 h
[1] = test system: UO-31
[2] = test system: SK-MEL-28
[3] = test system: COLO 205
[4] = test system: DMS-114
[5] = test system: DLD-1
[6] = test system: SW-620
[7] = test system: UACC-62
[8] = test system: LXFL 529
[9] = test system: LOX IMVI
[10] = test system: SNB-75
[11] = test system: OVCAR-4
[12] = test system: NCI-H460
[13] = test system: SK-OV-3
[14] = test system: SNB-78
[15] = test system: XF498
[16] = test system: A498
[17] = test system: SNB-19
[18] = test system: T47D
[19] = test system: Hs-578T
[20] = test system: MDA-MB-435

| Structure (SMILES) | GI50 [1] | GI50 [2] | GI50 [3] | GI50 [4] | GI50 [5] | GI50 [6] | GI50 [7] | GI50 [8] | GI50 [9] | GI50 [10] | GI50 [11] | GI50 [12] | GI50 [13] | GI50 [14] | GI50 [15] | GI50 [16] | GI50 [17] | GI50 [18] | GI50 [19] | GI50 [20] |
| --- | --- | --- | --- | --- | --- | --- | --- | --- | --- | --- | --- | --- | --- | --- | --- | --- | --- | --- | --- | --- |
| O=C(O)C12CC3CC(C1)C2C=C3P(=O)(O)O (configuration not stated) | > 100 µM (inactive) | > 100 µM (inactive) | > 100 µM (inactive) | > 100 µM (inactive) | > 100 µM (inactive) | > 100 µM (inactive) | > 100 µM (inactive) | > 100 µM (inactive) | > 100 µM (inactive) | > 100 µM (inactive) | > 100 µM (inactive) | > 100 µM (inactive) | > 100 µM (inactive) |  |  |  |  |  |  |  |
| CN(C)CCNC(=O)c1cccc2nc(-c3ccccc3)oc12 | 17.4 µM (inactive) | 60.1 µM (inactive) | 17.3 µM (inactive) | 47.1 µM (inactive) | 31.9 µM (inactive) | 39.2 µM (inactive) | 31.5 µM (inactive) |  | 26.5 µM (inactive) | 13.5 µM (inactive) | 26.5 µM (inactive) | 30.4 µM (inactive) | 34.4 µM (inactive) | > 72.6 µM (inactive) | 34.3 µM (inactive) | 27.7 µM (inactive) | 19.7 µM (inactive) |  |  |  |
| CC(=O)OC1CC[C@@]2(C)C(=CC[C@@H]3[C@@H]2CC[C@]2(C)Nc4nn(S(C)(=O)=O)cc4C[C@@H]32)C1 (some centres not stated) | 37 µM (inactive) | 28.4 µM (inactive) | 35.7 µM (inactive) |  |  |  | 21.8 µM (inactive) |  |  | 24.2 µM (inactive) |  | 18.7 µM (inactive) | > 100 µM (inactive) |  |  | > 100 µM (inactive) | 79.4 µM (inactive) | 14.2 µM (inactive) | 67 µM (inactive) | 20 µM (inactive) |
| COC(=O)C1=C(O)C(C(=O)OC)[C@@]2(O)[C@@H](C(=O)OC)[C@H](C)[C@@H](C)[C@@H]1[C@@H]2C(=O)OC (some centres not stated) | 38.5 µM (inactive) | > 100 µM (inactive) |  |  |  |  | 55.5 µM (inactive) |  | 51.9 µM (inactive) | 57.7 µM (inactive) |  | 44.9 µM (inactive) | 49.4 µM (inactive) |  |  | > 100 µM (inactive) | > 100 µM (inactive) | > 100 µM (inactive) | 27.4 µM (inactive) | 17.9 µM (inactive) |
| CCCCCOc1ccc(/C=N\c2ccc(-c3ccc(/N=C\c4ccc(OCCCCC)cc4)c(OC)c3)cc2OC)cc1 | > 80.2 µM (inactive) | > 100 µM (inactive) | > 100 µM (inactive) | > 100 µM (inactive) | > 100 µM (inactive) | > 100 µM (inactive) | > 100 µM (inactive) |  | > 100 µM (inactive) | 46.9 µM (inactive) | > 31.6 µM (inactive) | > 100 µM (inactive) | > 100 µM (inactive) | > 84.9 µM (inactive) | > 100 µM (inactive) | > 100 µM (inactive) | > 100 µM (inactive) |  |  |  |
| CCOC(=O)C1=NN(c2ccccc2)C2=CC(C)=NN(C)C(=S)N21 | > 100 µM (inactive) | > 100 µM (inactive) | > 100 µM (inactive) |  |  | > 100 µM (inactive) | > 100 µM (inactive) |  | > 100 µM (inactive) | > 100 µM (inactive) | > 100 µM (inactive) | 48.5 µM (inactive) | > 100 µM (inactive) |  |  |  | > 100 µM (inactive) | > 100 µM (inactive) | > 100 µM (inactive) | > 100 µM (inactive) |
| O=C(/N=N/c1cc(Cl)ccc1Cl)NNc1cc(Cl)ccc1Cl | 11.7 µM (inactive) | 23.5 µM (inactive) | 21.8 µM (inactive) |  |  |  | 11.2 µM (inactive) |  |  | 28.4 µM (inactive) |  | 17.3 µM (inactive) | 30.3 µM (inactive) |  |  | 26.9 µM (inactive) | > 10 µM (inactive) | 10.5 µM (inactive) | 25.5 µM (inactive) | 13.7 µM (inactive) |
| Cc1ccc(C(=O)N/N=C(\N=N\c2cccc(C)c2)c2ccc(N(CCC#N)CCC#N)cc2C)cc1 | > 100 µM (inactive) | 13.1 µM (inactive) | > 100 µM (inactive) |  |  | 50.5 µM (inactive) | 57.1 µM (inactive) |  | 88.9 µM (inactive) | 47.5 µM (inactive) | > 100 µM (inactive) | 52.7 µM (inactive) | > 100 µM (inactive) |  |  | 73.3 µM (inactive) | > 100 µM (inactive) | 44 µM (inactive) | 51.9 µM (inactive) | 26.4 µM (inactive) |
| Cc1cc(O)nc(NN2C(Cl)C(=O)C2c2c(O)ccc3ccccc23)n1 (configuration not stated) | 26.1 µM (inactive) | 19.5 µM (inactive) | 25.9 µM (inactive) | 19.8 µM (inactive) |  | 30.2 µM (inactive) | 20.3 µM (inactive) | 15.2 µM (inactive) | 13.7 µM (inactive) | 8.75 µM (inactive) | 17.3 µM (inactive) | 15 µM (inactive) |  | 20.1 µM (inactive) |  |  | 20.7 µM (inactive) |  |  |  |
| CC[C@@]1(O)C[C@H](OC2CC(N(C)C)C(OC3CC(O)C(OC4CC(O)C(O)C(C)O4)C(C)O3)C(C)O2)c2c(cc3c(c2O)C(=O)c2c(O)ccc(O)c2C3=O)[C@H]1C(=O)OC (some centres not stated) | 0.112 µM (active) | 0.0369 µM (active) | 0.0131 µM (active) | 0.0853 µM (active) | 0.0328 µM (active) | 0.00875 µM (active) | 0.017 µM (active) |  | 0.163 µM (active) | 0.0548 µM (active) | 0.0371 µM (active) | 0.00577 µM (active) | 0.0811 µM (active) | 0.0776 µM (active) | 0.0189 µM (active) | 0.0146 µM (active) | 0.0346 µM (active) |  |  |  |
| COc1ccc(C(=O)Cc2cc(OC)ccc2OC)cc1 | > 100 µM (inactive) |  | > 100 µM (inactive) | 66.8 µM (inactive) | > 100 µM (inactive) | > 100 µM (inactive) | > 100 µM (inactive) | > 100 µM (inactive) | > 100 µM (inactive) | 29 µM (inactive) | > 100 µM (inactive) | > 100 µM (inactive) | > 100 µM (inactive) | 42.4 µM (inactive) |  | 39.2 µM (inactive) | > 100 µM (inactive) |  |  |  |
| C=C1CN=C(Nc2ccc(Cl)cc2)S1 | > 100 µM (inactive) | > 100 µM (inactive) | > 100 µM (inactive) |  |  | > 100 µM (inactive) |  |  | 62.1 µM (inactive) | > 100 µM (inactive) | > 100 µM (inactive) | > 100 µM (inactive) | > 100 µM (inactive) |  |  | > 100 µM (inactive) | > 100 µM (inactive) | > 100 µM (inactive) | > 100 µM (inactive) |  |
| O=C(O)C(CO)NC(=O)C1C(C(=O)O)C(c2ccccc2[N+](=O)[O-])C=C(c2ccco2)N1c1ccncc1 (configuration not stated) | 3.68 µM (inactive) | 9.55 µM (inactive) | 4.62 µM (inactive) |  |  | 1.87 µM (inactive) | 7.83 µM (inactive) |  | 1.57 µM (inactive) | 8.97 µM (inactive) | 12.7 µM (inactive) | 6.31 µM (inactive) | 15.1 µM (inactive) |  |  | 11.8 µM (inactive) | 12 µM (inactive) | 10.2 µM (inactive) | 13.5 µM (inactive) | 5.16 µM (inactive) |
| O=c1c2cccnc2ncn1CCCN1CCCCC1 | > 100 µM (inactive) | > 100 µM (inactive) | > 100 µM (inactive) | > 100 µM (inactive) | > 100 µM (inactive) | > 100 µM (inactive) | > 100 µM (inactive) |  | > 100 µM (inactive) | > 100 µM (inactive) | > 100 µM (inactive) | > 100 µM (inactive) | > 100 µM (inactive) | > 100 µM (inactive) | > 100 µM (inactive) |  | > 100 µM (inactive) |  |  |  |
| Cc1nnc(N)s/c1=N/O | > 100 µM (inactive) | > 100 µM (inactive) | > 100 µM (inactive) |  |  | > 100 µM (inactive) | > 100 µM (inactive) |  | > 100 µM (inactive) | > 100 µM (inactive) | > 100 µM (inactive) | > 100 µM (inactive) | > 100 µM (inactive) |  |  | > 100 µM (inactive) | > 100 µM (inactive) | > 100 µM (inactive) | > 100 µM (inactive) | > 100 µM (inactive) |
| CC(=O)OC1CC2(O)C(CCC3(C)C(c4ccc(=O)oc4)CCC32O)C2(C)CCC(O)C=C12 (configuration not stated) | 0.0297 µM (active) | 0.0375 µM (active) | 0.0385 µM (active) | 0.00116 µM (active) | 0.0375 µM (active) | 0.0375 µM (active) | 0.024 µM (active) |  | 0.0191 µM (active) | 0.0317 µM (active) | 0.0206 µM (active) | 0.00454 µM (active) | 0.0336 µM (active) | 0.00989 µM (active) | 0.0381 µM (active) | 0.0428 µM (active) | 0.0466 µM (active) |  |  |  |
| CC(=O)Nc1ccc(/C=C/c2ccc(NC(=O)Nc3ccc(/C=C/c4ccc(NC(C)=O)cc4S(=O)(=O)O)c(S(=O)(=O)O)c3)cc2S(=O)(=O)O)c(S(=O)(=O)O)c1 | > 100 µM (inactive) | > 100 µM (inactive) | > 100 µM (inactive) | 60.5 µM (inactive) | > 100 µM (inactive) | > 100 µM (inactive) | > 100 µM (inactive) |  | > 94.2 µM (inactive) | 53.8 µM (inactive) | > 100 µM (inactive) | > 100 µM (inactive) | > 100 µM (inactive) | > 100 µM (inactive) | > 48 µM (inactive) | > 100 µM (inactive) | > 100 µM (inactive) |  |  |  |
| CCCCCCCCCC[C@@H](O)[C@@H]1CC[C@@H]([C@@H]2CC[C@@H]([C@@H](O)CCCCCCCCCCC(O)CC3=CC(C)OC3=O)O2)O1 (some centres not stated) | 0.562 µM (active) | > 10 µM (inactive) | > 10 µM (inactive) |  |  | 8.2 µM (inactive) | 3.79 µM (inactive) |  | 1.05 µM (active) | > 10 µM (inactive) | 1.38 µM (inactive) | 1.28 µM (inactive) | > 10 µM (inactive) |  |  | 5.61 µM (inactive) |  | 0.984 µM (active) | > 10 µM (inactive) |  |

— ChEMBL document CHEMBL1201862, “PubChem BioAssay data set” (2004)
